According to patent publication US12509437B2, “Substituted thiophene carboxamides and derivatives thereof as microbicides” (Bayer Aktiengesellschaft, priority 2019, dated 2025):

tested on: Uromyces appendiculatus; assay: In vivo preventive test on Uromyces appendiculatus (bean rust); conditions: 240 h, 31 ppm of active ingredient, sprayed 72 hours before inoculation, evaluated 10 days after inoculation, read-out: efficacy
Procedure: (§1) The tested active ingredients were prepared by homogenization in a mixture of acetone/Dimethyl sulfoxide/Tween®, and then diluted with water to obtain the desired active material concentration.
The young plants of bean were treated by spraying the active ingredient prepared as described above. Control plants were treated only with an aqueous solution of acetone/Dimethyl sulfoxide/Tween®.
After 72 hours, the plants were contaminated by spraying the leaves with an aqueous suspension of Uromyces appendiculatus spores. The contaminated bean plants were incubated for 24 hours at 20° C. and at 100% relative humidity and then for 9 days at 20° C. and at 70-80% relative humidity.
The test was evaluated 10 days after the inoculation. 0% means an efficacy which corresponds to that of the control plants while an efficacy of 100% means that no disease was observed.

Structure (SMILES) | pest or weed control at 31 ppm [%]
CCCOC(=O)C1(NC(=O)c2sc(Br)c(Br)c2C)CCC1 [I.133] | 90 to 100

same assay, conditions: 240 h, 125 ppm of active ingredient, sprayed 72 hours before inoculation, evaluated 10 days after inoculation, read-out: efficacy

Structure (SMILES) | pest or weed control at 125 ppm [%]
CCCOC(=O)C1(NC(=O)c2sc(Br)c(Br)c2C)CCC1 [I.133] | 90 to 100

same assay, conditions: 240 h, 500 ppm of active ingredient, sprayed 72 hours before inoculation, evaluated 10 days after inoculation, read-out: efficacy

Structure (SMILES) | pest or weed control at 500 ppm [%]
CCCOC(=O)C1(NC(=O)c2sc(Br)c(Br)c2C)CCC1 [I.133] | 90 to 100
CCCSC(=O)C1(NC(=O)c2sc(Br)c(Br)c2C)CC1 [I.134] | 90 to 100

tested on: not listed separately; assay: LogP by HPLC on reversed phase columns (EEC directive 79/831 Annex V.A8); format: physicochemical; conditions: method [a]
Procedure: [table] If more than one Log P value is available within the same method, all the values are given and separated by “+”. Calibration was done with straight-chain alkan2-ones (with 3 to 16 carbon atoms) with known Log P values (measurement of Log P values using retention times with linear interpolation between successive alkanones). Lambda-max-values were determined using UV-spectra from 200 nm to 400 nm and the peak values of the chromatographic signals.

Structure (SMILES) | LogP
CCOC(=O)C1(NC(=O)c2sc(Br)c(Br)c2C)CCCC1 [I.106] | 4.09^[a]
COC(=O)C1(NC(=O)c2sc(Br)c(Br)c2C)CCOCC1 [I.107] | 2.82^[a]
COC(=O)CC(C)NC(=O)c1sc(Br)c(Br)c1C (stereo not drawn) [I.109] | 3.14^[a]
CNC(=O)CNC(=O)c1sc(Cl)c(Cl)c1C [I.110] | 1.92^[a]
CCOC(=O)C(NC(=O)c1sc(Br)c(Br)c1C)(OCC)C(C)C (stereo not drawn) [I.112] | 4.80^[a]
COC(=O)CNC(=S)c1sc(Cl)c(Cl)c1C [I.113] | 3.60^[a]
COC(=O)C(C1CC1)N(O)C(=O)c1sc(Cl)c(Cl)c1C (stereo not drawn) [I.114] | 3.13^[a]
Cc1c(C(=O)NC(C(=O)NO)C(C)C)sc(Br)c1Br (stereo not drawn) [I.115] | 2.31^[a]
CCOC(=O)CN(O)C(=O)c1sc(Cl)c(Cl)c1C [I.116] | 2.95^[a]
COC(=O)C(CCSC(C)=O)NC(=O)c1sc(Cl)c(Cl)c1C (stereo not drawn) [I.117] | 3.59^[a]
COC(=O)CC(NC(=O)c1sc(Cl)c(Cl)c1C)C(=O)OC (stereo not drawn) [I.118] | 3.00^[a]
COC(=O)[C@H](CSC(=O)N(C)C)NC(=O)c1sc(Cl)c(Cl)c1C [I.119] | 3.35^[a]
CCNC(=O)SC[C@H](NC(=O)c1sc(Cl)c(Cl)c1C)C(=O)OC [I.120] | 3.22^[a]
CNC(=S)SC[C@H](NC(=O)c1sc(Cl)c(Cl)c1C)C(=O)OC [I.121] | 3.33^[a]
CCOC(=O)CC(NC(=O)c1sc(Cl)c(Cl)c1C)C(=O)OCC (stereo not drawn) [I.123] | 3.76^[a]
CCOC(=O)CCC(NC(=O)c1sc(Cl)c(Cl)c1C)C(=O)OCC (stereo not drawn) [I.124] | 3.84^[a]
COC(=O)[C@H](CC(=O)OC(C)(C)C)NC(=O)c1sc(Cl)c(Cl)c1C [I.125] | 4.17^[a]
CCOC(=O)C(CSC(C)=O)NC(=O)c1sc(Cl)c(Cl)c1C (stereo not drawn) [I.126] | 3.51^[a]
Cc1c(C(=S)NC2(C(=O)OC3CCC3)CC2)sc(Br)c1Br [I.127] | 4.66^[a]
Cc1c(C(=O)NC2(C(N)=O)CC2)sc(Br)c1Br [I.129] | 2.07^[a]
CNC(=O)C1(NC(=O)c2sc(Br)c(Br)c2C)CC1 [I.130] | 2.21^[a]
Cc1c(C(=O)NC2(C(=O)NC3CCC3)CC2)sc(Br)c1Br [I.135] | 2.94^[a]
COC(=O)C(CCC(N)=O)NC(=O)c1sc(Br)c(Br)c1C (stereo not drawn) [I.138] | 2.13^[a]
CCOC(=O)C1(NC(=O)c2sc(Br)c(Br)c2C)CCOCC1 [I.139] | 3.17^[a]
Cc1c(C(=O)NC(C(=O)OCc2ccccc2)C2CC2)sc(Cl)c1Cl (stereo not drawn) [I.140] | 4.53^[a]

Structure (SMILES) | LogP
Cc1c(C(=O)NC2(C(=O)OC(C)C)CCC2)sc(Cl)c1Cl [I.141] | 4.05^[a]
COC(=O)C1(NC(=O)c2sc(Cl)c(Cl)c2C)CC(C)(C)C1 [I.142] | 4.05^[a]
COC(=O)C1(NC(=O)c2sc(Cl)c(Cl)c2C)CC(F)(F)C1 [I.143] | 3.43^[a]
COC(=O)C1(NC(=O)c2sc(Cl)c(Cl)c2C)COC1 [I.144] | 2.52^[a]
Cc1c(C(=O)NC2(C(=O)OC(C)(C)C)CC(F)(F)C2)sc(Cl)c1Cl [I.145] | 4.48^[a]
CCOC(=O)C1(NC(=O)c2sc(Cl)c(Cl)c2C)CSC1 [I.146] | 3.60^[a]
CCOC(=O)[C@H](CO)NC(=O)c1sc(Cl)c(Cl)c1C [I.148] | 2.53^[a]
COC(=O)C(C)NC(=S)c1sc(Br)c(Br)c1C (stereo not drawn) [I.149] | 4.05^[a]
CCOC(=O)C(C)NC(=S)c1sc(Br)c(Br)c1C (stereo not drawn) [I.150] | 4.38^[a]
Cc1c(C(=O)NC(C)(C#N)C2CC2)sc(Br)c1Br (stereo not drawn) [I.152] | 3.50^[a]
Cc1c(C(=O)NC(C(=O)OC2CCC2)C2CC2)sc(Cl)c1Cl (stereo not drawn) [I.153] | 4.44^[a]
Cc1c(C(=O)NC(C(=O)OC(C)C)C2CC2)sc(Cl)c1Cl (stereo not drawn) [I.154] | 4.23^[a]
Cc1c(C(=O)NC2(C(=O)OCC3CC3)CCC2)sc(Cl)c1Cl [I.155] | 4.19^[a]
Cc1c(C(=O)NC2(C(=O)OC(C)(C)C)CCC2)sc(Cl)c1Cl [I.156] | 4.55^[a]
CCCCOC(=O)C1(NC(=O)c2sc(Cl)c(Cl)c2C)CCC1 [I.157] | 4.59^[a]
Cc1c(C(=O)NC2(C(=O)OC3CCCCC3)CCC2)sc(Cl)c1Cl [I.158] | 5.08^[a]
Cc1c(C(=O)NC2(C(N)=S)CC2)sc(Cl)c1Cl [I.159] | 2.54^[a]
CNC(=O)C1(NC(=O)c2sc(Cl)c(Cl)c2C)CC1 [I.160] | 2.12^[a]
Cc1c(C(=O)NC(C(=O)OC(C)(C)C)C2CC2)sc(Cl)c1Cl (stereo not drawn) [I.161] | 4.70^[a]
COC(=O)C(C)(Cc1ccccc1)NC(=O)c1sc(Cl)c(Cl)c1C (stereo not drawn) [I.166] | 4.60^[a]
CCOC(=O)CN(C(=O)c1sc(Cl)c(Cl)c1C)C1CC1 [I.168] | 3.75^[a]
Cc1c(C(=O)NC2(C#N)CCSCC2)sc(Br)c1Br [I.169] | 3.59^[a]
Cc1c(C(=S)NCC(=O)O)sc(Cl)c1Cl [I.172] | 2.71^[a]
Cc1c(C(=S)NC(C)C(=O)O)sc(Br)c1Br (stereo not drawn) [I.173] | 3.05^[a]
Cc1c(C(=O)NC2(C#N)CCCSC2)sc(Br)c1Br (stereo not drawn) [I.177] | 3.50^[a]

same assay, conditions: method [a]: LC-UV, acidic range, 0.1% formic acid in water and acetonitrile as eluent

Structure (SMILES) | LogP
COC(=O)[C@H](Cc1ccccc1)NC(=O)[C@H](CC(=O)O)NC(=O)c1sc(Br)c(Br)c1C [I.105] | 3.11^[a]
Cc1c(C(=O)NC2CCOC2=O)sc(Cl)c1Cl (stereo not drawn) [I.147] | 2.40^[a]
Cc1c(C(=O)NC2(C#N)CCC(C3CCCCC3)CC2)sc(Br)c1Br (stereo not drawn) [I.151] | 6.06^[a]
Cc1c(C(=O)N[C@H]2CCCNC2=O)sc(Cl)c1Cl [I.162] | 2.12^[a]
Cc1c(C(=O)NC2CCCCNC2=O)sc(Cl)c1Cl (stereo not drawn) [I.163] | 2.67^[a]
Cc1c(C(=O)N[C@H]2CCOC2=O)sc(Cl)c1Cl [I.167] | 2.34^[a]
Cc1c(C(=O)NC2(C#N)CCC(c3ccccc3)CC2)sc(Br)c1Br (stereo not drawn) [I.170] | 4.78^[a]

same assay, conditions: method [b]: LC-UV, neutral range, 0.001 molar ammonium acetate solution in water and acetonitrile as eluent

Structure (SMILES) | LogP
Cc1c(C(=O)N[C@H]2CCSC2=O)sc(Cl)c1Cl [I.111] | 2.97^[b]

same assay, conditions: reversed phase HPLC columns; method [a]

Structure (SMILES) | chromatographic logP
CCCOC(=O)C1(NC(=O)c2sc(Br)c(Br)c2C)CCC1 [I.133] | 4.23
CCCSC(=O)C1(NC(=O)c2sc(Br)c(Br)c2C)CC1 [I.134] | 4.26

same assay, conditions: reversed phase HPLC columns; preparation examples; method not indicated; read-out: Log P

Structure (SMILES) | chromatographic logP
Cc1c(C(=O)NCC(=O)O)sc(Br)c1Br [N-[(4,5-dibromo-3-methyl-2-thienyl)carbonyl]glycine] | 2.05

tested on: salicylate responsive promoter sequence of the PR1 (pathogenesis-related protein I) gene (AT2G14610); assay: Induction of defense gene expression in Arabidopsis thaliana (PR1 promoter-GFP reporter plants); format: in vivo; conditions: 72 h, 75 ppm, 3rd day after spraying, mock treated leaves set as 1.00, read-out: relative fluorescence value
Procedure: Arabidopsis thaliana reporter plants containing the coding sequence of a green fluorescent protein (GFP) linked to the salicylate responsive promoter sequence of the PR1 (pathogenesis-related protein I) gene (AT2G14610) were grown for five days and then sprayed with compounds. On the 3rd day after spraying, plant fluorescence was assessed with a MacroFluo instrument from Leica Microsystems (Wetzlar, Germany). Fluorescences were quantified with the Meta-Morph Microscopy Automation & Image Analysis Software (Molecular Devices, Sunnyvale, Calif., United States). Background fluorescence in mock treated leaves was set as 1.00.

Structure (SMILES) | fold induction at 75 ppm
CCCOC(=O)C1(NC(=O)c2sc(Br)c(Br)c2C)CCC1 [I.133] | > 2
CCCSC(=O)C1(NC(=O)c2sc(Br)c(Br)c2C)CC1 [I.134] | > 2

same assay, conditions: 72 h, 300 ppm, 3rd day after spraying, mock treated leaves set as 1.00, read-out: relative fluorescence value

Structure (SMILES) | fold induction at 300 ppm
CCCOC(=O)C1(NC(=O)c2sc(Br)c(Br)c2C)CCC1 [I.133] | > 2
CCCSC(=O)C1(NC(=O)c2sc(Br)c(Br)c2C)CC1 [I.134] | > 2
O=C(O)c1ccccc1O [Salicylic acid, reference compound] | 2.7

tested on: Peronospora parasitica; assay: In vivo preventive test on Peronospora parasitica (Crucifer downy mildew) on cabbage; conditions: Hyaloperonospora parasitica, 120 h, 31 ppm of active ingredient, sprayed 72 hours before inoculation, evaluated 5 days after inoculation, read-out: efficacy
Procedure: as §1
The young plants of cabbage were treated by spraying the active ingredient prepared as described above. Control plants were treated only with an aqueous solution of acetone/Dimethyl sulfoxide/Tween®.
After 72 hours, the plants were contaminated by spraying the leaves with an aqueous suspension of Peronospora parasitica spores. The contaminated cabbage plants were incubated for 5 days at 20° C. and at 100% relative humidity.
The test was evaluated 5 days after the inoculation. 0% means an efficacy which corresponds to that of the control plants while an efficacy of 100% means that no disease was observed.

Structure (SMILES) | pest or weed control at 31 ppm [%]
COC(=O)C(NC(=O)c1sc(Br)c(Br)c1Br)C1CC1 (stereo not drawn) [CMP14, reference compound] | 0
CCCOC(=O)C1(NC(=O)c2sc(Br)c(Br)c2C)CCC1 [I.133] | 70 to 79

same assay, conditions: Hyaloperonospora parasitica, 120 h, 125 ppm of active ingredient, sprayed 72 hours before inoculation, evaluated 5 days after inoculation, read-out: efficacy

Structure (SMILES) | pest or weed control at 125 ppm [%]
O=C(NC(C(=O)O)C1CC1)c1cc(Br)c(Br)s1 (stereo not drawn) [CMP13, reference compound] | 0
COC(=O)C(NC(=O)c1sc(Br)c(Br)c1Br)C1CC1 (stereo not drawn) [CMP14, reference compound] | 0
CCCOC(=O)C1(NC(=O)c2sc(Br)c(Br)c2C)CCC1 [I.133] | 90 to 100

same assay, conditions: Hyaloperonospora parasitica, 120 h, 500 ppm of active ingredient, sprayed 72 hours before inoculation, evaluated 5 days after inoculation, read-out: efficacy

Structure (SMILES) | pest or weed control at 500 ppm [%]
CCCOC(=O)C1(NC(=O)c2cc(Br)c(Br)s2)CC1 [CMP7, reference compound] | 0
CCCOC(=O)C1(NC(=O)c2sc(Br)c(Br)c2C)CCC1 [I.133] | 90 to 100
CCCSC(=O)C1(NC(=O)c2sc(Br)c(Br)c2C)CC1 [I.134] | 80 to 89
